This is an account of results in PMC4474691, “Leukemia-Associated Mutations in Nucleophosmin Alter Recognition by CRM1: Molecular Basis of Aberrant Transport” (PLoS ONE, 2015).

Experiment [1] deals with T1, CRM1^HA (Mus musculus, UniProt Q6P5F9, L431A/V430A/V432A).
T1 construct: His-ZZ (cleaved yes); made in house; host or cells: Escherichia coli BL21-CodonPlus (DE3)
The note with it: previously described, CRM1^HA binding to YFP-PKI(NES); cited from earlier work. From the text:
We next used the TFP-(NES) constructs to monitor CRM1^HA binding to each motif, using the change in fluorescence anisotropy upon complex formation as a readout (Fig 4B), as previously described.

The target in experiment [2] is T1, CRM1^HA. In words: Isothermal titration calorimetry, CRM1^HA / NES. It counts as binding. The note with it: ITC, 20°C; for Kd: read-out: KD. How it is done: Isothermal titration calorimetry (ITC)
ITC measurements were carried out using a VIP-ITC MicroCalorimeter (MicroCal, Inc., Northampton, MA). TFP and YFP constructs, as well as CRM1^HA, were dialyzed in a buffer containing 20 mM HEPES, pH 7.4, 50 mM NaCl, 1 mM TCEP, 1 mM MgCl2, and degassed prior to the experiment. Untagged peptides (AS: QDLCLAVEEVSLRK, AL: EAIQDLCLAVEEVSLRK, ES: QDLWQSLAQVSLRK and EL: EAIQDLWQSLAQVSLRK), N-acetylated and 95% pure, were purchased from Proteogenix (Schiltigheim, France) and resuspended in the ITC buffer. Measurements were performed at 20°C. TFP-NES, YFP-NES or NES peptides at 35–180 μM were titrated onto CRM1^HA at 2–14 μM. Injections of 6 μL were performed at 320 seconds interval (the first injection always was of 1 μL and is not considered in data analysis). To determine the thermodynamic parameters of NPM / importin interaction, importin α, importin Δα or importin α/β at 45–60 μM were titrated onto NPM (1–1.2 μM pentamer) in 50 mM Tris/HCl, pH 7.5, 100 mM NaCl, 2 mM TCEP, and 10% glycerol. […] “Reverse” titrations, where 20–30 μM NPM was titrated onto 7–10 μM of the different importins were also performed and yielded similar results.
The reaction heat of each injection is related to the calorimetric enthalpy of binding, ΔH^0. The binding isotherms, ΔH^0 vs. molar ratio, were analyzed with an independent binding sites model using MicroCal Origin software. The fit of the binding curve yields the binding constant KA (KD = 1/KA) and the enthalpy ΔH^0 of the binding reaction. The Gibbs free energy of binding ΔG^0 and the entropy ΔS^0 are determined from the basic thermodynamic expressions: ΔG^0 = -RTlnKA = ΔH^0−TΔS^0, where R and T are the gas constant and the absolute temperature, respectively.
Fig 5 Analysis of CRM1^HA/TFP-NES interaction by ITC. Isothermal titration of CRM1^HA with TFP-mutE(NES). […] The titration of negative control TFP-Cter (180 μM) onto CRM1^HA (14 μM) (circles) is also shown for comparison.
(Isothermal titration calorimetry measures the heat released or taken up as one component is titrated into another.)

Another experiment concerns CRM1. As to conditions: cited from earlier work. The source says: Two sequence motifs in the core domain of NPM (residues 42–61 and 94–102) (Fig 1) have been investigated as candidate NESs. In addition, we have detected a further putative NES in the C-terminal region (see below). However, it is still unclear to what extent any of these sequences represents NPM physiological NESs.

Experiment [3] addresses T1, CRM1^HA. In words: Fluorescence anisotropy binding assay, CRM1^HA. The note with it: 0–60 μM CRM1^HA, 25°C. The protocol:
(§1) Fluorescence anisotropy binding assays
To estimate CRM1 binding affinities for NES motifs we monitored binding with a fluorescence-polarization assay based on previously described approaches. The increase in fluorescence anisotropy of TFP/YFP when the TFP/YFP-NES construct (50 nM) binds to 0–60 μM CRM1 (either CRM^HA or wild type) was recorded at 25°C with a 8100 SLM-Aminco spectrofluorometer in buffer 20 mM Tris/HCl, pH 7.4, 50 mM NaCl, 5 mM DTT, 2 mM MgCl2. Excitation and emission wavelengths were 463, 500 nm for TFP and 463, 533 nm for YFP, and slits width 4 and 8 nm, respectively.
Fig 4 Binding of CRM1 to TFP-NES constructs. (A) Scheme of the engineered TFP constructs, showing the sequence of the NES motifs. Φ residues are highlighted in red. (B) Titration of CRM1 onto the different TFP constructs (50 nM), at 25°C, in buffer 20 mM Tris/HCl, pH 7.4, 50 mM NaCl, 5 mM DTT, 2 mM MgCl2: Left panel: Binding of CRM1^HA (solid symbols) or wild type CRM1 (empty symbols) to TFP-PKI(NES). Right panel: Binding of CRM1^HA to TFP-mutE(NES) (triangles) and TFP-mutA(NES) (squares). Fraction bound was calculated from the relative increase in fluorescence anisotropy of TFP (λexc 463 nm, λem 500 nm). Error bars correspond to at least three measurements per CRM1 concentration.
We next used the TFP-(NES) constructs to monitor CRM1^HA binding to each motif, using the change in fluorescence anisotropy upon complex formation as a readout (Fig 4B), as previously described. […] The different nature of the fluorescent tag, and/or the linker between the fluorescent protein and the NES (2 residues longer in the YFP-PKI construct) could explain the discrepancy. […] To isolate the CRM1 / NES interaction under study from the influence of the tag protein, we have also conducted binding assays with peptides corresponding to the NES motifs (see below).
Background: Polarisation of emitted light reports the rotation of a fluorescent probe.

Experiment [4] has as its target T1, CRM1^HA. The experiment can be described thus: Ni-NTA chromatography of TFP-NES / CRM1^HA complex formation. It counts as binding. As to conditions: 2.5 mg His-tagged TFP construct on 1 mL Histrap FF, 1 mL CRM1^HA 18 μM; 50 mM Tris/HCl pH 8.0, 500 mM NaCl; SDS-PAGE. From the text:
Although the relative potency of the NESs acquired by the different NPM mutants has been compared using an in vivo export assay, their CRM1-binding affinities have not yet been determined. We cloned the NESs of mutant A and E as C-terminal fusions to a teal fluorescent protein (TFP) (Fig 4A). As a reference, we generated an equivalent construct with the well-characterized NES of protein kinase inhibitor (PKI). We first tested the binding of CRM1^HA to the TFP-NES constructs using Ni-NTA chromatography. His-tagged TFP constructs were bound to the Ni-NTA column, and an excess of untagged CRM1^HA was then injected (S4 Fig).
Supplementary file pone.0130610.s004.tif: S4 Fig TFP-NES / CRM1^HA complex formation shown by Ni-NTA chromatography. 2.5 mg of the His-tagged TFP construct were loaded on a 1 mL Histrap FF (GE Healthcare) in buffer 50 mM Tris/HCl, pH 8.0, 500 mM NaCl, 1 mM TCEP, 2 mM MgCl2, 5% glycerol, containing 15 mM imidazole. After washing with the same buffer, 1 mL of CRM1^HA at 18 μM was injected at 0.1 mL/min flow rate. Unbound CRM1^HA was collected, and then bound proteins were eluted with 2 M imidazole. SDS-PAGE of elution fractions: Unbound (free) CRM1^HA and the fraction eluted with imidazole, containing both the His-tagged TFP construct along with bound CRM1^HA. (TIF) Click here for additional data file.

A further experiment concerns wild type CRM1. The experiment can be described thus: Fluorescence anisotropy binding assay, wild type CRM1. As to conditions: TFP-PKI 50 nM, 25°C, 20 mM Tris/HCl pH 7.4, wild type CRM1, compared with CRM1^HA. Also on record: species or system mouse.
Excerpt: For recombinant production in E. coli, we subcloned wild type NPM, as well as mutants A and E, as N-terminal (His)10 –ZZ tagged constructs in pTG-A20 vector [22]. The original clone of wild type mouse CRM1, N-terminally fused to a His—ZZ tag was a kind gift of Dr. Dirk Görlich (Max Planck Institute for Biophysical Chemistry, Göttingen). We generated the high affinity CRM1 mutant (CRM1^HA) from a clone provided by Dr. Murray Stewart (MRC Laboratory of Molecular Biology, Cambridge). […]
as §1
To estimate CRM1 binding affinities for NES motifs we monitored binding with a fluorescence-polarization assay based on previously described approaches. The increase in fluorescence anisotropy of TFP/YFP when the TFP/YFP-NES construct (50 nM) binds to 0–60 μM CRM1 (either CRM^HA or wild type) was recorded at 25°C with a 8100 SLM-Aminco spectrofluorometer in buffer 20 mM Tris/HCl, pH 7.4, 50 mM NaCl, 5 mM DTT, 2 mM MgCl2. […]
Fig 4 Binding of CRM1 to TFP-NES constructs. […] Fraction bound was calculated from the relative increase in fluorescence anisotropy of TFP (λexc 463 nm, λem 500 nm). […]
We next used the TFP-(NES) constructs to monitor CRM1^HA binding to each motif, using the change in fluorescence anisotropy upon complex formation as a readout (Fig 4B), as previously described. […]

A further experiment has as its target importin α/β. As to conditions: importin α/β binding of nucleoplasmin; cited from earlier work. The source says:
Our study has explored the molecular determinants of both NPM export (CRM1/NES) and import (importin α/β/NLS). […] This lower affinity could be related to the fact that NPM NLS includes one basic residue less in the major cluster of the bipartite motif than NP NLS. […] This, together with the very low affinity of CRM1 for wild type NPM and significant avidity for nucleolar comp ...

The mark [5] stands for this setting: NES ligand (35–180 μM) titrated onto CRM1^HA (2–14 μM), 20 mM HEPES pH 7.4, 50 mM NaCl, 1 mM TCEP, 1 mM MgCl2, independent binding sites model.

Read-outs that look alike come from different tables or passages of the source.

T1 sequence (Q6P5F9 1-1062 V430A/L431A/V432A limits assumed): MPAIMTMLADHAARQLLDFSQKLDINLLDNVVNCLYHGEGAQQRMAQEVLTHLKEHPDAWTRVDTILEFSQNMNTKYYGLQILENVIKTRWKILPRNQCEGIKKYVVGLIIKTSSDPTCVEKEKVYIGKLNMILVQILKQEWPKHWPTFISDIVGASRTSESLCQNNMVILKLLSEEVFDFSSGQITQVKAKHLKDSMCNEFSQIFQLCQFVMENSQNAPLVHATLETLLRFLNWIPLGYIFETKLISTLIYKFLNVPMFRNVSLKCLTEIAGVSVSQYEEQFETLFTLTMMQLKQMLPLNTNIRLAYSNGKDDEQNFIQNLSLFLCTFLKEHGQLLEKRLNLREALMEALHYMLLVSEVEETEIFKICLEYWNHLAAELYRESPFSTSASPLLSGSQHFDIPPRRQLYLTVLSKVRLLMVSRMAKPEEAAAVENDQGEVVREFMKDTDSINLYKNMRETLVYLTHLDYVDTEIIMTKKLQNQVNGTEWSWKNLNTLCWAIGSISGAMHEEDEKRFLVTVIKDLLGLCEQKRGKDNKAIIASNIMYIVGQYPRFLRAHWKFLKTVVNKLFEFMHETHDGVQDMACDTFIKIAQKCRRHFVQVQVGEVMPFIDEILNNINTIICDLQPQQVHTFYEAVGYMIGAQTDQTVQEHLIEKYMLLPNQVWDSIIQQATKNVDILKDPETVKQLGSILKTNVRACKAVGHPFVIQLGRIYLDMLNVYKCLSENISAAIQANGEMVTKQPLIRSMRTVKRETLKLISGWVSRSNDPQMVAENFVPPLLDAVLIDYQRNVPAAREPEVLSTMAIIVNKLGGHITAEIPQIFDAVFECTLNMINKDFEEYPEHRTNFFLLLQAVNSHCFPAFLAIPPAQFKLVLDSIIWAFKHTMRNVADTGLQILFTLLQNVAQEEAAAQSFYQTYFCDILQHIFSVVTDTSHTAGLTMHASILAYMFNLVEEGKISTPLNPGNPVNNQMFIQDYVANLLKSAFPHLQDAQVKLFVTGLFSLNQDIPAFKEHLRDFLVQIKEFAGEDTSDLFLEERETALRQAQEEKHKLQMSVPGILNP

As to “YFP-PKI(NES): previously described YFP-PKI(NES) construct (LALKLAGLDI; fusion to YFP (carrier omitted); linker stated to be 2 residues longer than in TFP construct) [reference compound]”, the Kd with CRM1^HA [1] was 25 nM; with CRM1^HA [2] (setting [5]), 18 ± 3 nM.
Regarding “residues 42–61: candidate NES motif in the core domain of NPM (LSLRTVSLGAGAKDELHIVE; UniProt P06748 42-61, looked up, fragment)”, in the experiment on CRM1, the “binding to CRM1” value was “no binding to CRM1”.
On to “DLCLAVEEVSLRK [TFP-mutA(NES), NES of NPM mutant A as C-terminal fusion to teal fluorescent protein]”, for which the Kd at CRM1^HA [3] (TFP-NES 50 nM, pH 7.4, rounded, read-out: apparent KD) is 5000 nM; at CRM1^HA [3] (TFP/YFP-NES construct 50 nM, 20 mM Tris/HCl pH 7.4, 50 mM NaCl, 5 mM DTT, 2 mM MgCl2, at least three measurements per CRM1 concentration, read-out: apparent KD (C50)), 4970 ± 1180 nM; on CRM1^HA [2] (setting [5]), 2380 ± 698 nM; at CRM1^HA [2] (TFP-NES titrated onto CRM1^HA, 20 mM HEPES pH 7.4, rounded), 2400 nM. The substance further registered a ΔH at CRM1^HA [2] (NES ligand titrated onto CRM1^HA, 20 mM HEPES pH 7.4) of -14.5 ± 6.2 kcal/mol. Further, the “-TΔS” value at CRM1^HA [2] (NES ligand titrated onto CRM1^HA, 20 mM HEPES pH 7.4, from ΔG = ΔH − TΔS) was 6.9 ± 6.1 kcal/mol. For the same substance, the “n (binding stoichiometry)” value at CRM1^HA [2] (NES ligand titrated onto CRM1^HA, 20 mM HEPES pH 7.4, low n of peptides might result from limited solubility) was 0.54 ± 0.27. In addition, the ΔG on CRM1^HA [2] (NES ligand titrated onto CRM1^HA, 20 mM HEPES pH 7.4, ΔG = -RTlnKA) is reported as -7.6 ± 0.1 kcal/mol. Besides, the “CRM1^HA binding in Ni-NTA chromatography” value at CRM1^HA [4] is listed as “not even detected in these conditions”.
For the substance LALKLAGLDI [TFP-PKI(NES)], the “binding of wild type CRM1” value in the experiment on wild type CRM1 is “much weaker than that of CRM1^HA”. For the same substance, the “CRM1^HA binding in Ni-NTA chromatography” value at CRM1^HA [4] is given as “stronger than its binding to TFP- mutE(NES)”.
For “nucleoplasmin: homologous protein nucleoplasmin”, the Kd on importin α/β was 57 nM.
